Experimental data as given in US20220096515A1, “Methods and Formulations for Preventing Neurological or Psychiatric Disorders” (Huntington Medical Research Institutes, priority 2020, published 2022).

Tests used:
[1] = test system: periventricular endothelial cells isolated from E15 wildtype (CD1) forebrain; assay: Endothelial cell proliferation in culture (confluency, BrdU labeling index); type: cell-based, mouse; conditions: 30 μM and 100 μM
Procedure: Primary culture of endothelial cells and endothelial cell staining: Embryonic brains were dissected under a stereo-microscope, after the NAD^+ treatment paradigm and the telencephalon was removed. Pial membranes were peeled off. Telencephalon without pial membranes from the periventricular region was pooled. Purity of endothelial cell cultures was established with endothelial cell markers and determined to be one hundred percent. Isolation and culture of endothelial cells were performed according to published methodology. Periventricular endothelial cells were prepared from CD1 (wild type), saline-treated Gabrb3^fl/fl, saline-treated Gabrb3^ECKO, and NAD^+-treated Gabrb3^ECKO embryos. Endothelial cells were labeled with anti-biotinylated isolectinB4 (1:100, Sigma), anti-GABA (1:400, Sigma), anti-DAXX (1:100, Santa Cruz Biotechnology) and anti-P2X4 (1:100, Abclonal) followed by secondary detection with AlexaFluor conjugates (Invitrogen). DAPI (Invitrogen) was used to label nuclei. Images were taken on an FSX100 microscope (Olympus). 1 million cells were examined for each immunohistochemistry condition.
Endothelial cell proliferation and long-distance cell migration assay: To test for cell proliferation, CD1 periventricular endothelial cells (1 million cells per experiment) were incubated in the presence of the mitotic marker 5-bromo-2′-deoxyuridine (0.05% BrdU) with or without muscimol, for 1 hour to examine the impact on proliferation of these cells and processed for BrdU immunohistochemistry.
In one experiment, periventricular endothelial cells were isolated from E15 wildtype (CD1) forebrain and tested the effect of NAD^+ addition in vitro. Exogenous addition of 100 μM NAD^+ was able to initiate significant endothelial cell proliferation within 2 days of culture and a 35 mm culture dish was confluent within 4-6 days (FIGS. 2A-2D). This was an interesting observation, since untreated periventricular endothelial cells take approximately 12 days to reach confluency in 35mm dishes, in our well-established culture conditions. […] Vital elements of angiogenesis include effective endothelial cell proliferation, migration, sprouting, alignment, tube formation and branching. […] In some areas of the dish, the NAD^+-treated endothelial cells seemed to align and fold into tubular shapes (FIG. 2H), aspects that we have not seen in wild type or untreated periventricular endothelial cells in normal culture conditions.
Effects of NAD^+ addition to periventricular endothelial cells isolated from E15 wildtype (CD1) forebrain was more robust than GABA. (FIGS. 17A-17F) Phase contrast images of periventricular endothelial cells cultured from E15 CD1 forebrain at different time points in untreated conditions (FIGS. 17A-17B) or after plating with NAD^+ addition (100 μM; FIGS. 17C-17D) or GABA addition (5 μM; FIGS. 17E-17F). […] (FIG. 17G) All groups of periventricular endothelial cells were exposed to BrdU (1 mM BrdU per ml medium) for 1 hour followed by Isolectin B4/BrdU double labeling. Quantification of BrdU labeling indices; Data represents mean±SD (n=8, *P<0.05; Student's t-test).

P2X4 receptor [2] = target: T1, P2X4 receptor (Mus musculus, UniProt Q9JJX6); assay: P2X4 activation/inactivation in wild type endothelial cells: Daxx mRNA and GABA ELISA; type: cell-based; conditions: cultured wild type periventricular endothelial cells
T1 construct: endogenous in cells; host or cells: Primary periventricular endothelial cells from mouse embryonic telencephalon (CD1 wild type; Gabrb3 fl/fl; Gabrb3 ECKO with or without NAD+)
T1 sequence (Q9JJX6 1-388): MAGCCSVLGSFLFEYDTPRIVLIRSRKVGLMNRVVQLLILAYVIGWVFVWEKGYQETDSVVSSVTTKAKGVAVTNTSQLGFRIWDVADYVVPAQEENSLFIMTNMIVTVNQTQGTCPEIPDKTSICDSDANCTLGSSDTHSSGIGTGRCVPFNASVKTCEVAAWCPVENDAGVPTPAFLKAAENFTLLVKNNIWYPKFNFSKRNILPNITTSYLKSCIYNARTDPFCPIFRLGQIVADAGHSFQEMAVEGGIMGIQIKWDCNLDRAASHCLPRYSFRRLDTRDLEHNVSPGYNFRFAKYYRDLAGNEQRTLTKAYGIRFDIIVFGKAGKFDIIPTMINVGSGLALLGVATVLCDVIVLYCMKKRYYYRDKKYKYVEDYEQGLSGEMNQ
Procedure: Quantitative real-time PCR: RT was performed by using iScript Reverse Transcription Supermix kit (Bio-Rad). PCR reactions were run on a CFX96 Touch Real Time PCR (Bio-Rad) with SsoAdvanced™ Universal SYBR® Green Supermix (Bio-Rad). Primers for qPCR (Daxx, P2x4, P2x7, P2y13, Tek, vwf, F2r, Sirt2, Nos1, Nrp1, Pax6, Gad1, Gad2, Grin2a, Trpm2, Trpc4 and Trpv6) were obtained from Thermo Fisher Scientific. The housekeeping gene Gapdh was used as a reference. The relative gene expression and subsequent fold changes among different samples were determined according to published methodology.
ELISA: Periventricular endothelial cells were prepared after the NAD^+ treatment paradigm, or after the treatment with purinergic receptor agonists/antagonists, and seeded in 12 well culture plates at 0.1×10^6 cells/well. Supernatants from endothelial cell cultures were collected after 96 hours and stored at −80° C. for ELISA. GABA concentrations were quantitatively determined by competitive ELISA according to the manufacturers' protocol (GABA Research ELISA kits, Labor Diagnostica Nord, Germany), and absorbance was measured using a multiplate microplate fluorescence reader (Molecular Devices, CA) at 450 nm.
(§1) An important aspect that influences endothelial cell proliferation is Ca^2+ influx, which is important for cell cycle progression in the neocortex. GABAA receptor activation in Gabrb3^fl/fl periventricular endothelial cells leads to an influx of Ca^2+ that influences cell proliferation. However, in Gabrb3^ECKO periventricular endothelial cells, due to the deletion of the β3 subunit, the GABAA receptors are dysfunctional. So, the autocrine feedback loop of GABA acting on GABAA receptors will not work in these Gabrb3^ECKO endothelial cells to cause Ca^2+ influx, even if GABA secretion is restored. In the absence of this mechanism, it was questioned whether the prenatal NAD^+ treatment was able to activate alternate mechanisms to trigger Ca^2+ influx in Gabrb3^ECKO endothelial cells. […] Therefore, P2X4 expression at both mRNA and protein levels in periventricular endothelial cells were evaluated, prepared after the six-day saline and NAD^+ treatment paradigm (FIGS. 11J-11O). P2X4 has been reported as the most abundantly expressed P2X receptor subtype in vascular endothelial cells from several tissues and its deficiency affects normal endothelial cell responses, such as Ca^2+ influx. However, P2X4 expression and functional significance in embryonic forebrain endothelial cells is unknown. […] To test whether P2X4 receptor activation on endothelial cells leads to an influx of Ca^2+, periventricular endothelial cells were incubated from the three groups in the presence of αβ-meATP that has been reported to show agonist activity at P2X receptors, including P2X4 (FIGS. 11N-11Q). […]

P2X4 receptor [3] = target: T1, P2X4 receptor; assay: Calcium imaging, P2X receptor agonist; type: cell-based; conditions: 100 μM
Procedure: (§2) Calcium imaging: For Ca^2+ assays, periventricular endothelial cells (1 million cells per assay) were incubated with the Ca^2+ indicator dye FluoForte AM according to manufacturer's instructions (Enzo Life Sciences), loaded into the chamber of an FSX 100 microscope and imaged continuously before and after αβ-meATP, Bz-ATP and 2Me-SADP application (100 μM). Fluorescence micrographs were digitalized and results were expressed as change in fluorescence over baseline fluorescence.
as §1

P2Y13 receptor = target: T2, P2Y13 receptor (Mus musculus, UniProt Q9D8I2); assay: Calcium imaging, P2Y13 agonist; type: cell-based; conditions: 100 μM; periventricular endothelial cells
T2 construct: imaged continuously before and after αβ-meATP, Bz-ATP and 2Me-SADP application (100 μM); endogenous in cells; host or cells: Primary periventricular endothelial cells from mouse embryonic telencephalon
T2 sequence (Q9D8I2 1-337): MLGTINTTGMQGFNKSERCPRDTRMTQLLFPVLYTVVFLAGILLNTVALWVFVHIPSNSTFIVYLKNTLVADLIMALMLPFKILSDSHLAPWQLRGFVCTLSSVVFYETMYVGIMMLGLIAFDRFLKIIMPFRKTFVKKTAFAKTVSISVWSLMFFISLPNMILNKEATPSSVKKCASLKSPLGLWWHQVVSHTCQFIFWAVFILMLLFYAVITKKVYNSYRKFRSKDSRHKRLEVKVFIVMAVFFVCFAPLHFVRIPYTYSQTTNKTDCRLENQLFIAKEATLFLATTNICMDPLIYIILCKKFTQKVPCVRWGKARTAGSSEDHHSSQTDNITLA
Procedure: as §2
(§3) An important aspect that influences endothelial cell proliferation is Ca^2+ influx, which is important for cell cycle progression in the neocortex. GABAA receptor activation in Gabrb3^fl/fl periventricular endothelial cells leads to an influx of Ca^2+ that influences cell proliferation. However, in Gabrb3^ECKO periventricular endothelial cells, due to the deletion of the β3 subunit, the GABAA receptors are dysfunctional. So, the autocrine feedback loop of GABA acting on GABAA receptors will not work in these Gabrb3^ECKO endothelial cells to cause Ca^2+ influx, even if GABA secretion is restored. […] Therefore, P2X4 expression at both mRNA and protein levels in periventricular endothelial cells were evaluated, prepared after the six-day saline and NAD^+ treatment paradigm (FIGS. 11J-11O). […]

P2X7 receptor = target: T3, P2X7 receptor (Mus musculus, UniProt Q9Z1M0); assay: Calcium imaging, P2X7 agonist; type: cell-based; conditions: 100 μM; periventricular endothelial cells
T3 construct: imaged continuously before and after αβ-meATP, Bz-ATP and 2Me-SADP application (100 μM); endogenous in cells; host or cells: Primary periventricular endothelial cells from mouse embryonic telencephalon
T3 sequence (Q9Z1M0 1-595): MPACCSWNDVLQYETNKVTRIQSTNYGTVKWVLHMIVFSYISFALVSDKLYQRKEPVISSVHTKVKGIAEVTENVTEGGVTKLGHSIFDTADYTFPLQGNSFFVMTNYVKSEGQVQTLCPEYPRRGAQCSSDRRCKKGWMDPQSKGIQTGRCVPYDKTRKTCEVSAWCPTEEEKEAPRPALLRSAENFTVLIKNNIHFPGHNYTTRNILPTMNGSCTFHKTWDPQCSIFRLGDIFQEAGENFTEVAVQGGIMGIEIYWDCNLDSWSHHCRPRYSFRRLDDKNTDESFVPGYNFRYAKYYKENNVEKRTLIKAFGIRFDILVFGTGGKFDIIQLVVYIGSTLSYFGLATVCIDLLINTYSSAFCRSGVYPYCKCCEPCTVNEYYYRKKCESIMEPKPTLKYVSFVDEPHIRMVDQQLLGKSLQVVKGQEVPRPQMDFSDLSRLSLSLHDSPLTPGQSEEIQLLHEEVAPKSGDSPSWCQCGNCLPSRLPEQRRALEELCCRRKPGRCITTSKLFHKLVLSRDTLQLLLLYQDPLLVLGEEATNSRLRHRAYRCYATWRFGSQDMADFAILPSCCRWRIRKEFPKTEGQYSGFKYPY
Procedure: as §2, §3

Q: Which endothelial cell proliferation [1] does the source give for NCCCC(=O)O [GABA, reference compound] here?
A: The endothelial cell proliferation was “no notable effect on cell proliferation”.

Q: Which results are given for Nc1ncnc2c1ncn2[C@@H]1O[C@H](COP(=O)(O)CP(=O)(O)OP(=O)(O)O)[C@@H](O)[C@H]1O [αβ-meATP]?
A: Daxx mRNA expression (P2X4 receptor [2]): reduced Daxx expression; GABA secretion by ELISA (P2X4 receptor [2]): increased GABA secretion; intracellular calcium (P2X4 receptor [3]; NAD^+-treated Gabrb3^ECKO endothelial cells): significant increase in intracellular calcium; intracellular calcium (P2X4 receptor [3]; saline-treated Gabrb3^ECKO endothelial cells): no marked increase in intracellular calcium; intracellular calcium (P2X4 receptor [3]; saline-treated Gabrb3^fl/fl endothelial cells): significant increase in intracellular calcium

Q: For CSc1nc(N)c2ncn([C@@H]3O[C@H](COP(=O)(O)OP(=O)(O)O)[C@@H](O)[C@H]3O)c2n1 [2Me-SADP], which “influx of Ca^2+” value (P2Y13 receptor) is on record?
A: Its value is “produced an influx of Ca^2+”.

Q: Which “influx of Ca^2+” value (P2X7 receptor) does the source give for Bz-ATP here?
A: The value was “produced an influx of Ca^2+”.

Q: What does the source list for O=C1CC(=O)N(c2cccc(-c3nc(=S)o[nH]3)c2)c2ccc3ccccc3c2N1 [+NP-1815-PX, NP-1815-PX]?
A: Daxx mRNA expression (P2X4 receptor [2]): increased Daxx expression; GABA secretion by ELISA (P2X4 receptor [2]): reduced GABA secretion
